Measured values reported in patent US9540702B2, “Stabilization of enzymes with stable coenzymes” (Roche Diabetes Care, Inc., priority 2009, dated 2017).

Assays:
[1] = target: glucose dehydrogenase (GlucDH) (Bacillus subtilis, UniProt P12310); test: Reaction kinetics, function curve and dry blank value of GlucDH/coenzyme formulations after warm, humid storage; assay type: biochemical
Method: carbaNAD (FIG. 1A) or NAD were added to the glucose-specific GlucDH. These formulations were each applied to Pokalon foils (Lonza) and, after drying, stored under warm and humid conditions (32° C., 85% relative air humidity). Subsequently, the reaction kinetics and the function curve were determined at regular intervals. In parallel at each of the measurement times a cNAD/NAD analysis and a determination of the residual activity of the enzyme were carried out.
However, a significant difference in the kinetics curves can be seen after 5 weeks.
There is also a considerable difference in the blank values (dry blank value before application of a blood sample) as shown in FIG. 3.
The different stability of glucose dehydrogenase in the presence of NAD or cNAD is also evident from a comparison of FIGS. 4 and 5. […] In this connection it is clear that the function of the enzyme is only slightly changed at high glucose concentrations over the entire period and approximately corresponds after 24 weeks to the value obtained after 5 weeks.

[2] = target: T1, diaphorase (from porcine heart) (Sus scrofa, UniProt P09623); test: Diaphorase activity in liquid reagent for lactate dehydrogenase stored at 25° C.; assay type: biochemical; details: liquid reagent stored at 25° C.; 2 mM carbaNAD or 0.2 mM NAD; various storage times
T1 construct: 3 U/ml diaphorase (from porcine heart); from tissue; host or cells: porcine heart
T1 sequence (P09623 36-509): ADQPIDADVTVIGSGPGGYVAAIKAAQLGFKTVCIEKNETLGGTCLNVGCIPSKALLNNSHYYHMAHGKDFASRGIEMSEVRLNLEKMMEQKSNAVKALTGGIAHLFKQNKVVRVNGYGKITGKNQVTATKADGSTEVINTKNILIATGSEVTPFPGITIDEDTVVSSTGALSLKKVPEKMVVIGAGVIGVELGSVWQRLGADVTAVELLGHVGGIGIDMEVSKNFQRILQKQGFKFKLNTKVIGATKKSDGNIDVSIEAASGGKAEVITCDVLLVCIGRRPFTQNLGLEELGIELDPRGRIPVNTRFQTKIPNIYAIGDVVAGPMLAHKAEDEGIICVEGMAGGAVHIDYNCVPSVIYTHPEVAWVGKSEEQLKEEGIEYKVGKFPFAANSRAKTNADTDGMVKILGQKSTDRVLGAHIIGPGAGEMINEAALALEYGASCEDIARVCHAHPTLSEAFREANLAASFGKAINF
Method: A liquid reagent which, among others, contained diaphorase, carbaNAD, a tetrazolium salt and lactate was used to determine the activity of lactate dehydrogenase. The detection reagent which was stored in solution at 25° C. contained the following ingredients:
3 U/ml diaphorase (from porcine heart)
2 mM carbaNAD or 0.2 mM NAD
2 mM tetrazolium salt WST-3
0.1 M tricine/HCl, pH 8.8

[3] = target: T2, alcohol dehydrogenase (ADH) (Saccharomyces cerevisiae, UniProt P00330); test: Stability of alcohol dehydrogenase with coenzyme in a liquid phase at 35° C.; assay type: biochemical, yeast; details: 65 hours at 35° C., 5 mg/ml ADH, 50 mg/ml coenzyme, pH 9.0
T2 sequence (P00330 1-348): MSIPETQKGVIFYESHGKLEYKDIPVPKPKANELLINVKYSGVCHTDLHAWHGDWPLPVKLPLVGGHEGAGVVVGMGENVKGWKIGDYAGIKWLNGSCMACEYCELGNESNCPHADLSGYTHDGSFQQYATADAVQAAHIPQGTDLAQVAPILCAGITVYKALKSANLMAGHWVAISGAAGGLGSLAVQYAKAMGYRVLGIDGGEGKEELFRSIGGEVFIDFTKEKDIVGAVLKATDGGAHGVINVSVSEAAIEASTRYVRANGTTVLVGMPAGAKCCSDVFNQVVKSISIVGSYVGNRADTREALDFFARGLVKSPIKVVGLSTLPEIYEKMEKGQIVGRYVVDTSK
Method: FIG. 12 is a graphical illustration of the stability of alcohol dehydrogenase from yeast in the presence of NAD or cNAD in a liquid phase at 35° C. for a period of 65 hours with test conditions of 5 mg/ml ADH; 50 mg/ml NAD or cNAD; buffer: 75 mM Na4P2O7; glycine, pH 9.0; temperature 35° C.
cNAD or NAD was added to a detection solution containing alcohol dehydrogenase. These mixtures were stored at 2-8° C. and at 35° C. Subsequently, the stability of alcohol dehydrogenase (ADH) was checked at regular intervals and the residual activity of the enzyme was determined.
The residual activity of alcohol dehydrogenase in the presence of the native coenzyme NAD is at about 6% after 65 hours at 35° C., whereas the residual activity of the enzyme in the presence of the artificial coenzyme cNAD is still at about 60%.

Chain of glucose dehydrogenase (GlucDH) (P12310 whole entry): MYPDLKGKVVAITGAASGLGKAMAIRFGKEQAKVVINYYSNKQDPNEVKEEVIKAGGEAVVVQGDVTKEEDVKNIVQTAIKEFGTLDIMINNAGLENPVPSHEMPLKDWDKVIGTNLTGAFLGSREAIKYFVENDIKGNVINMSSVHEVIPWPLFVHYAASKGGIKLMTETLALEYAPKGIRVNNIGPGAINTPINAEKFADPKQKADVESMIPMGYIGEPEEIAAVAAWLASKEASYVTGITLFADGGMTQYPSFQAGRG

**Q.** Which “function curve of GlucDH” value ([1]; after 5 weeks at 32° C. and 85% air humidity) does the source give for `NC(=O)c1ccc[n+]([C@@H]2C[C@H](COP(=O)([O-])OP(=O)(O)OC[C@H]3O[C@@H](n4cnc5c(N)ncnc54)[C@H](O)[C@@H]3O)[C@@H](O)[C@H]2O)c1` [carbaNAD] here?
**A.** still lies within the set of curves of the previous measurements

**Q.** And the “kinetics curves of GlucDH” value ([1]; after 5 weeks at 32° C. and 85% relative air humidity)?
**A.** remains virtually unchanged

**Q.** What about the “dry blank value before application of a blood sample” value ([1]; up to 5 weeks at 32° C. and 85% air humidity) of the same compound?
**A.** does not occur

**Q.** And the “residual activity of diaphorase compared to formulation containing NAD” value [2]?
**A.** considerably increased residual activity

**Q.** What about the “residual activity of alcohol dehydrogenase” value [3] of the same compound?
**A.** about 60%
